# Measurements from patent US20190374601A1, “METHODS FOR TREATING FUNGAL INFECTIONS” (priority 2017, published 2019).
# “And” between values parts separate entries of the source, which are not always exact repeats. Equal entries are not always repeated. Starred links: 1 amine or outer side, 2 acyl side, 3 side chain; linkers in the order of their positions; H or OH if unused. Positions of bridges follow the written chain, without caps; N, C: chain ends. Non-standard residues stand in square brackets, D forms with d. Residues, ends and D or L forms follow the SMILES beside them. *: point of attachment. Orn(4R-OH,5R-OCH2CH2NMe3+) = C[N+](C)(C)CCO[C@@H](N[*:3])[C@H](O)C[C@H](N[*:1])C(=O)[*:2]; pTerphenylCO(4''-OnC5H11) = CCCCCOc1ccc(-c2ccc(-c3ccc(C(=O)*)cc3)cc2)cc1; hTyr(3S-OH,4S-OH) = N[C@H](C(=O)O)[C@H](O)[C@@H](O)c1ccc(O)cc1; Pro(3S-OH,4S-Me) = C[C@H]1CN[C@H](C(=O)O)[C@H]1O; Hyp = O=C(O)[C@@H]1C[C@@H](O)CN1
# Experiments:
# Format in all cases: in vivo
# T. mentagrophytes [1] = assay: Clinical evaluation of infected skin, T. mentagrophytes dermatophytosis guinea pig model, different doses once weekly, Example 2; details: evaluated study day 12, relative to vehicle control
# Procedure: (§1) Procedures for animal care and use, preparation of standard inoculum, and infection of the animals were carried out following the same steps as described in Example 1.
# (§2) Infected guinea pigs were randomized into the following (1)-(5) groups (10 per group) (see Table 4): (1) a vehicle control (water+mannitol); (2) terbinafine 10 mg/kg PO days 1 and 8, as a positive control; (3) CD101 10 mg/kg SQ days 1 and 8; (4) CD101 20 mg/kg SQ days 1 and 8; and (5) CD101 40 mg/kg SQ days 1 and 8.
# (§3) Animals were treated with CD101 SQ or PO (for terbinafine) once a week on days 1 and 8.
# (§4) Study Day 1: Infect the animals with T. mentagrophytes and begin treatments.
# (§5) Study Day 8: Last treatment.
# (§6) Study Day 12: Clinical evaluation of the four quadrants in the marked area is done. Hair samples were obtained from each quadrant. Hairs (10 per quadrant) were planted in Potato Dextrose Agar, and incubated for 48 h for mycological evaluation. Procedures for clinical and mycological evaluations are described below.
# (§7) The compounds was administered SQ or PO (0.3 mL/kg […]).
# Clinical assessment of local changes of the infected skin area was scored as follows:
# 1=Few slightly erythematous places on the skin
# 2=Well-defined redness, swelling with bristling hairs.
# 3=Large areas or marked redness incrustation, scaling, bald patches, ulcerated in places.
# 4=Partial damage to the integument and loss of hair
# 5=Extensive damage to the integument and complete loss of hair at the site of infection.
# Any other local skin reactions were noted. The assessment of clinical evaluation in the change of scores per treatment group was expressed as percentage relative to the untreated control group of animals using the following formula:
# where T=Scores in the test group. K=Scores in the untreated control
# T. mentagrophytes [2] = assay: Hair root invasion test (mycological evaluation), T. mentagrophytes dermatophytosis guinea pig model, different doses once weekly, Example 2; details: evaluated study day 12, relative to vehicle control
# Procedure: as §1, §2, §3, §4, §5, §6, §7
# Hair samples were removed with sterile forceps from four quadrants. Ten hair samples from each quadrant were inoculated onto the corresponding quadrant on the Potato Dextrose agar plate and incubated at 30° C. for 2 days. The fungal growth at the hair root was examined under a stereomicroscope. The effectiveness of a compound in reducing the number of mycologically positive hair sample per treated group was expressed as percentage relative to the untreated control group of animals using the following formula:
# where T=Positive hair in the test group, K=Positive hair in the Untreated control.
# [3] = Tissue concentration of subcutaneously injected CD101 in cynomolgus monkeys; details: for CD101 Concentration: individual animals, at necropsy; for Mean Concentration: mean of males and females
# Procedure: In this study, the tissue concentration of subcutaneously injected CD101 was evaluated in cynomolgus monkeys.
# (§8) Dose levels were 30, 60, and 120 mg/kg/dose for Groups 2, 3, and 4, respectively. […] The dose volumes were 1.2, 0.3, 0.6, and 1.2 mL/kg spread evenly over 4, 1, 2, and 4 dose sites for Groups 1-4, respectively, on each day of dosing. The control and 120 mg/kg/dose groups each consisted of 5 males and 5 females, and the 30 and 60 mg/kg/dose groups each consisted of 3 males and 3 females.
# (§9) The animals were observed twice daily for mortality and moribundity. Clinical examinations were performed once daily for at least 6 consecutive days, including the day of randomization, prior to randomization, prior to dosing, 1-2 hours postdosing, once daily on nondosing days, and once daily during the recovery period. Detailed physical examinations were performed at least weekly during the acclimation period until randomization, on the day of randomization, weekly (±2 days) during the study period, and on the day of the scheduled necropsies. Injection site (IS) observations were performed prior to dosing (dose sites that were utilized on that day of dosing), 1-2 hours postdosing (dose sites that were utilized on that day of dosing), once daily on nondosing days (dose sites that had been previously been utilized), and twice weekly during the recovery period. Individual body weights were recorded weekly (±2 days). Individual body weights were collected at least weekly during the acclimation period until randomization, on the day of randomization, Study Day 0 (prior to dosing), weekly (2±days) during the study period, on the day prior to the day of the scheduled necropsies (nonfasted) and on the day of the scheduled necropsies (fasted). Clinical pathology parameters (hematology, coagulation, serum chemistry, and urinalysis) were analyzed during acclimation prior to randomization (Study Day −15), and on the day of the primary (Study Day 17) and recovery (Study Day 45) necropsies. Blood samples for toxicokinetic evaluation were collected from all animals/sex/group/time point prior to dose administration and at approximately 1, 2, 4, 8, 24, 48, and 72 hours after dose administration on Study Days 0 and 12. Complete necropsies were performed on all animals, and selected organs were weighed at the scheduled necropsies. Selected tissues were examined microscopically from all animals. Fingernail, toenail, nail bed, and abdominal skin samples were collected from all animals at the scheduled necropsies for bioanalytical analysis.
# [4] = Toxicokinetic evaluation (plasma) after subcutaneous injection in cynomolgus monkeys
# Procedure: as §8, §9
structure (smiles),measurement,setting,value
"CCCCCOc1ccc(-c2ccc(-c3ccc(C(=O)N[C@H]4C[C@@H](O)[C@@H](OCC[N+](C)(C)C)NC(=O)[C@@H]5[C@@H](O)[C@@H](C)CN5C(=O)[C@H]([C@@H](C)O)NC(=O)[C@H]([C@H](O)[C@@H](O)c5ccc(O)cc5)NC(=O)[C@@H]5C[C@@H](O)CN5C(=O)[C@H]([C@@H](C)O)NC4=O)cc3)cc2)cc1 [CD101] ({pTerphenylCO(4''-OnC5H11)}-[Orn(4R-OH,5R-OCH2CH2NMe3+)]T[Hyp][hTyr(3S-OH,4S-OH)]T[Pro(3S-OH,4S-Me)]; lactam 1-C)",Percent Efficacy Clinical,T. mentagrophytes [1]; 10 mg/kg SQ days 1 and 8,90.5%
same,Percent Efficacy Clinical,T. mentagrophytes [1]; 20 mg/kg SQ days 1 and 8,94.2%
same,Percent Efficacy Clinical,T. mentagrophytes [1]; 40 mg/kg SQ days 1 and 8,98.4%
same,Percent Efficacy Mycological,T. mentagrophytes [2]; 10 mg/kg SQ days 1 and 8,80.9%
same,Percent Efficacy Mycological,T. mentagrophytes [2]; 20 mg/kg SQ days 1 and 8,82.9%
same,Percent Efficacy Mycological,T. mentagrophytes [2]; 40 mg/kg SQ days 1 and 8,98.5%
same,CD101 Concentration,"[3]; Fingernail bed, 30 mg/kg/dose SC once every 3 days (5 doses), 30 mg/kg",168 µg/g and 160 µg/g and 92.5 µg/g and 75.9 µg/g and 71.9 µg/g and 48.6 µg/g
same,Mean Concentration,"[3]; Fingernail bed, 30 mg/kg/dose SC",103 µg/g
same,CD101 Concentration,"[3]; Fingernail bed, 60 mg/kg/dose SC once every 3 days (5 doses), 60 mg/kg",218 µg/g and 96.7 µg/g and 251 µg/g and 159 µg/g and 175 µg/g and 184 µg/g
same,Mean Concentration,"[3]; Fingernail bed, 60 mg/kg/dose SC",181 µg/g
same,CD101 Concentration,"[3]; Fingernail bed, 120 mg/kg/dose SC once every 3 days (5 doses), 120 mg/kg",1351 µg/g and 404 µg/g and 67.1 µg/g and 129 µg/g and 346 µg/g and 332 µg/g and 330 µg/g and 147 µg/g and 283 µg/g and 114 µg/g
same,Mean Concentration,"[3]; Fingernail bed, 120 mg/kg/dose SC",350 µg/g
same,CD101 Concentration,"[3]; Fingernail, 30 mg/kg/dose SC once every 3 days (5 doses), 30 mg/kg",106 µg/g and 118 µg/g and 63.6 µg/g and 60.8 µg/g and 74.2 µg/g
same,CD101 Concentration,"[3]; Fingernail, 60 mg/kg/dose SC once every 3 days (5 doses), 60 mg/kg",194 µg/g and 108 µg/g and 527 µg/g and 171 µg/g and 155 µg/g and 175 µg/g
same,Mean Concentration,"[3]; Fingernail, 60 mg/kg/dose SC",222 µg/g
same,CD101 Concentration,"[3]; Fingernail, 120 mg/kg/dose SC once every 3 days (5 doses), 120 mg/kg",266 µg/g and 264 µg/g and 445 µg/g and 469 µg/g and 239 µg/g and 244 µg/g and 269 µg/g and 459 µg/g and 348 µg/g and 339 µg/g
same,Mean Concentration,"[3]; Fingernail, 120 mg/kg/dose SC",334 µg/g
same,CD101 Concentration,"[3]; Skin, 30 mg/kg/dose SC once every 3 days (5 doses), 30 mg/kg",38.2 µg/g and 44.4 µg/g and 43.7 µg/g
same,CD101 Concentration,"[3]; Skin, 60 mg/kg/dose SC once every 3 days (5 doses), 60 mg/kg",108 µg/g and 66.2 µg/g and 99.6 µg/g and 48.8 µg/g and 81.7 µg/g and 82.0 µg/g
same,Mean Concentration,"[3]; Skin, 60 mg/kg/dose SC",81.0 µg/g
same,CD101 Concentration,"[3]; Skin, 120 mg/kg/dose SC once every 3 days (5 doses), 120 mg/kg",133 µg/g and 132 µg/g and 32.0 µg/g and 12.2 µg/g and 141 µg/g and 151 µg/g and 77.6 µg/g and 43.1 µg/g and 135 µg/g and 15.9 µg/g
same,Mean Concentration,"[3]; Skin, 120 mg/kg/dose SC",87.3 µg/g
same,CD101 Concentration,"[3]; Toenail bed, 30 mg/kg/dose SC once every 3 days (5 doses), 30 mg/kg",76.9 µg/g and 102 µg/g and 50.5 µg/g and 86.1 µg/g and 82.9 µg/g
same,Mean Concentration,"[3]; Toenail bed, 30 mg/kg/dose SC",74.7 µg/g
same,CD101 Concentration,"[3]; Toenail, 30 mg/kg/dose SC once every 3 days (5 doses), 30 mg/kg",76.0 µg/g and 74.2 µg/g and 126 µg/g and 58.8 µg/g and 42.8 µg/g and 38.3 µg/g
same,Mean Concentration,"[3]; Toenail, 30 mg/kg/dose SC",69.3 µg/g
same,CD101 Concentration,"[3]; Toenail, 60 mg/kg/dose SC once every 3 days (5 doses), 60 mg/kg",265 µg/g and 86.7 µg/g and 198 µg/g and 106 µg/g and 160 µg/g and 79.2 µg/g
same,Mean Concentration,"[3]; Toenail, 60 mg/kg/dose SC",149 µg/g
same,CD101 Concentration,"[3]; Toenail, 120 mg/kg/dose SC once every 3 days (5 doses), 120 mg/kg",268 µg/g and 182 µg/g and 360 µg/g and 162 µg/g and 416 µg/g and 173 µg/g and 206 µg/g and 318 µg/g and 190 µg/g and 193 µg/g
same,Mean Concentration,"[3]; Toenail, 120 mg/kg/dose SC",247 µg/g
same,combined accumulation ratio (plasma),"[4]; 30 mg/kg/dose SC once every 3 days, males and females combined",3.18
same,combined accumulation ratio (plasma),"[4]; 60 mg/kg/dose SC once every 3 days, males and females combined",2.70
same,combined accumulation ratio (plasma),"[4]; 120 mg/kg/dose SC once every 3 days, males and females combined",2.67
same,time by which concentrations reached maximum or near maximum observed values,"[4]; Study Day 0, postdose, SC",≤ 8 h
same,increase of combined exposure (AUC0-72 and Cmax) over a 4-fold dose change,"[4]; Study Day 12, 30 to 120 mg/kg/dose SC",approximately 3 fold
same,predose concentration on Study Day 12 relative to Study Day 0 Cmax,"[4]; Study Day 12 predose, SC once every 3 days",approximately 2 fold
same,Cmax,"[4]; both sexes, cynomolgus monkey, plasma, range across the 30 to 120 mg/kg groups, males and females combined, SC",21000 to 65100 ng/mL
same,AUC(0-t),"[4]; both sexes, cynomolgus monkey, plasma, range across the 30 to 120 mg/kg groups, males and females combined, SC, read-out: AUC0-72",1360 to 4320 µg·h/mL
